Test results reported in the supplement of paper PMC10307832.

What was measured:
Assay in all cases: relative viability (nuclei count vs DMSO), 5 days (fraction); higher = more cells survive
Carboplatin + Olaparib = compound: C1CC(C1)(C(=O)O)C(=O)O.[NH2-].[NH2-].[Pt+2] [Carboplatin] + O=C(c1cc(Cc2n[nH]c(=O)c3ccccc23)ccc1F)N1CCN(C(=O)C2CC2)CC1 [Olaparib] (partner 8 µM)
Procedure, shortened: (§1)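 The day after seeding in 1536-well plates, lung cancer cell lines were treated by pin tool with a single drug, or with a fixed anchor-drug dose together with five library-drug doses (not always all listed) in √10 steps. After 5 days, a combined fix-and-stain solution (final 0.05% Triton X-100, 1% formaldehyde, 1 ug/ml Hoechst) was added. Nuclei counted on 4× images gave relative viability as treated counts over vehicle counts, reported as the median of duplicate plates.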

GSK126 + Vorinostat = compound: CC[C@H](C)N1C=C(C2=C(C=C(C=C21)C3=CN=C(C=C3)N4CCNCC4)C(=O)NCC5=C(C=C(NC5=O)C)C)C [GSK126] + O=C(CCCCCCC(=O)Nc1ccccc1)NO [Vorinostat] (partner 1 µM)
Procedure, shortened: as §1

Carboplatin + Vorinostat = compound: C1CC(C1)(C(=O)O)C(=O)O.[NH2-].[NH2-].[Pt+2] [Carboplatin] + O=C(CCCCCCC(=O)Nc1ccccc1)NO [Vorinostat] (partner 1 µM)
Procedure, shortened: as §1

Carboplatin + AZD7762 = compound: C1CC(C1)(C(=O)O)C(=O)O.[NH2-].[NH2-].[Pt+2] [Carboplatin] + NC(=O)Nc1cc(-c2cccc(F)c2)sc1C(=O)N[C@H]1CCCNC1 [AZD7762] (partner 0.2 µM)
Procedure, shortened: as §1

| Cell Line | relative viability (Carboplatin + Olaparib; first compound 0.08 µM) | relative viability (Carboplatin + Olaparib; first compound 0.253 µM) | relative viability (Carboplatin + Olaparib; first compound 0.8 µM) | relative viability (Carboplatin + Olaparib; first compound 2.53 µM) | relative viability (Carboplatin + Olaparib; first compound 8 µM) | relative viability (GSK126 + Vorinostat; first compound 0.08 µM) | relative viability (GSK126 + Vorinostat; first compound 0.253 µM) | relative viability (GSK126 + Vorinostat; first compound 0.8 µM) | relative viability (GSK126 + Vorinostat; first compound 2.53 µM) | relative viability (GSK126 + Vorinostat; first compound 8 µM) | relative viability (Carboplatin + Vorinostat; first compound 0.08 µM) | relative viability (Carboplatin + Vorinostat; first compound 0.253 µM) | relative viability (Carboplatin + Vorinostat; first compound 0.8 µM) | relative viability (Carboplatin + Vorinostat; first compound 2.53 µM) | relative viability (Carboplatin + Vorinostat; first compound 8 µM) | relative viability (Carboplatin + AZD7762; first compound 0.08 µM) | relative viability (Carboplatin + AZD7762; first compound 0.253 µM) | relative viability (Carboplatin + AZD7762; first compound 0.8 µM) | relative viability (Carboplatin + AZD7762; first compound 2.53 µM) | relative viability (Carboplatin + AZD7762; first compound 8 µM) |
| --- | --- | --- | --- | --- | --- | --- | --- | --- | --- | --- | --- | --- | --- | --- | --- | --- | --- | --- | --- | --- |
| NCI-H2170 | 0.621 | 0.668 | 0.555 | 0.567 | 0.37 | 0.914 | 1.01 | 0.748 | 0.799 | 0.772 | 0.94 | 0.811 | 0.89 | 0.737 | 0.413 | 0.944 | 0.934 | 0.995 | 0.724 | 0.385 |
| HCC-44 | 1.02 | 0.93 | 0.972 | 0.944 | 0.952 | 1.15 | 1.15 | 1.05 | 1.08 | 1.15 | 1.14 | 1.11 | 1.03 | 0.999 | 0.957 | 1.06 | 1.03 | 1.02 | 1.01 | 0.992 |
| NCI-H3122 | 0.644 | 0.584 | 0.562 | 0.559 | 0.622 | 1.14 | 1.15 | 0.933 | 1.06 | 1.18 | 0.874 | 0.729 | 0.99 | 1.06 | 1 | 1.04 | 1.01 | 0.946 | 0.974 | 0.885 |
| SW 900 | 0.814 | 0.968 | 0.874 | 0.818 | 0.823 | 0.421 | 0.546 | 0.432 | 0.39 | 0.566 | 0.476 | 0.522 | 0.501 | 0.528 | 0.519 | 0.651 | 0.689 | 0.531 | 0.533 | 0.542 |
| NCI-H1355 | 0.808 | 0.734 | 0.677 | 0.694 | 0.595 | 0.635 | 0.612 | 0.667 | 0.602 | 0.657 | 0.745 | 0.673 | 0.648 | 0.655 | 0.559 | 0.98 | 0.877 | 0.626 | 0.791 | 0.729 |
| NCI-H2342 | 0.447 | 0.497 | 0.394 | 0.357 | 0.372 | 0.82 | 0.753 | 0.74 | 0.725 | 0.857 | 0.751 | 0.788 | 0.828 | 0.865 | 0.744 | 0.57 | 0.595 | 0.55 | 0.439 | 0.484 |
| NCI-H1734 | 0.598 | 0.623 | 0.522 | 0.574 | 0.423 | 0.906 | 0.816 | 0.804 | 0.766 | 0.769 | 0.823 | 0.83 | 0.78 | 0.779 | 0.545 | 0.575 | 0.558 | 0.558 | 0.46 | 0.419 |
| LXF-289 | 1.05 | 1.1 | 1.08 | 1.05 | 0.996 | 0.8 | 0.832 | 0.718 | 0.787 | 0.707 | 0.788 | 0.787 | 0.775 | 0.793 | 0.713 | 1.17 | 1.16 | 1.07 | 1.06 | 1.03 |
| RERF-LC-KJ | 1.03 | 0.866 | 0.884 | 0.657 | 0.416 | 0.747 | 0.791 | 0.654 | 0.716 | 0.827 | 0.797 | 0.642 | 0.735 | 0.676 | 0.505 | 1.14 |  | 1.04 | 0.995 | 0.828 |
| NCI-H2087 | 0.69 | 0.674 | 0.578 | 0.553 | 0.328 | 0.847 | 0.523 | 0.652 | 0.652 | 1.15 | 0.981 | 1.23 | 0.62 | 0.531 | 0.396 | 1.38 | 1.48 | 1.2 | 1.12 | 0.939 |
| NCI-H1793 | 0.802 | 0.909 | 0.82 | 0.675 | 1.04 | 0.841 | 0.703 | 0.717 | 0.825 | 0.671 | 0.884 | 0.796 | 0.62 | 0.682 | 0.745 | 0.667 | 0.457 | 0.393 | 0.334 | 0.58 |
| HCC-827 | 0.61 | 0.651 | 0.639 | 0.593 | 0.564 | 0.893 | 0.929 | 0.798 | 0.925 | 0.919 | 1.15 | 0.9 | 0.768 | 0.765 | 0.713 | 0.245 | 0.204 | 0.213 | 0.182 | 0.223 |
| NCI-H1395 | 0.509 | 0.467 | 0.505 | 0.41 | 0.46 | 0.655 | 0.731 | 0.715 | 0.855 | 0.743 | 1.03 | 0.638 | 0.847 | 0.644 | 0.502 | 0.403 | 0.39 | 0.406 | 0.386 | 0.405 |
| NCI-H23 | 0.4 | 0.31 | 0.281 | 0.28 | 0.24 | 0.936 | 0.627 | 0.639 | 0.632 | 0.527 | 0.658 | 0.632 | 0.522 | 0.62 | 0.343 | 0.264 | 0.263 | 0.243 | 0.188 | 0.23 |
| HARA | 0.881 | 0.794 | 0.806 | 0.775 | 0.692 | 0.554 | 0.47 | 0.551 | 0.51 | 0.41 | 0.471 | 0.561 | 0.472 | 0.519 | 0.35 | 0.279 | 0.344 | 0.265 | 0.279 | 0.383 |
| HCC-366 | 0.387 | 0.363 | 0.364 | 0.288 | 0.208 | 0.389 | 0.354 | 0.29 | 0.342 | 0.385 | 0.451 | 0.311 | 0.317 | 0.29 | 0.114 | 0.442 | 0.256 | 0.155 | 0.126 | 0.0971 |
